# Results taken from US7785850B2, “Heterologus expression of trypanothione reductase from Leishmania donovani in a prokaryotic system” (priority 2004, dated 2010).
# Legend:
# [1] = biological target: T1, recombinant Leishmania donovani Trypanothione Reductase (LDdTR) (Leishmania donovani, UniProt P39050, S2A); test: biochemical
# T1 construct: GST (pET-41a vector fusion) (N, cleaved yes); made in house; host or cells: E. coli BL21(DE3), pET41a (clone LddTRpET41aDE3)
# Protocol: Trypanothione reductase activity was routinely assayed spectrophotometrically at 340 nm, as previously described (25). The reaction mixture contained 100 mM HEPES pH 7.8, 20 μM EDTA, 80 μM NADPH and 50 μM TS2. The reaction was allowed to proceed for 5 min. and change in O.D. was monitored every after 30 sec. One unit of enzyme activity is defined, as that amount of enzyme required to convert 1 μmol of NADPH to NADP per minute at 25° C. […] For comparative kinetic studies, assay was performed at 50 μM NADPH and varying concentration of TS2 (20, 40, 60, 80 & 100) and at 50 μM TS2 and varying concentration of NADPH (20, 40, 60, 80, 100 & 150).
# [2] = biological target: T2, recombinant Leishmania donovani Trypanothione Reductase (Leishmania donovani, UniProt P39050, S2A); test: Enzyme assay, kinetics and substrate specificity of recombinant purified trypanothione reductase; format: biochemical; details: for Km / Vmax: TS2 varied at 50 μM NADPH, NADPH varied at 50 μM TS2
# T2 construct: GST (pET-41a vector fusion) (N, cleaved yes); made in house; host or cells: E. coli BL21(DE3), pET41a (clone LddTRpET41aDE3)
# Protocol: Trypanothione reductase activity was routinely assayed spectrophotometrically at 340 nm, as previously described (25). The reaction mixture contained 20-100 mM HEPES pH 7.2-7.8, 20 μM-1 mM EDTA, 80-200 μM NADPH and 15-50 μM TS2. One unit of enzyme activity is defined as that amount of enzyme required to convert 1 μmol of NADPH to NADP per minute at 25° C. Protein was assayed according to the method of Bradford (1976) as supplied by Bangalore Genei with Bovine serum albumin as a standard. For comparative kinetic studies, assay was performed at 50 μM NADPH and at 5-100 μM concentrations of TS2 and at 50 μM TS2 and at 10-200 μM concentrations of NADPH.
# Trypanothione reductase activity was routinely assayed spectrophotometrically at 340 nm, as previously described (25). The reaction mixture contained 100 mM HEPES pH 7.8, 20 μM EDTA, 80 μM NADPH and 50 μM TS2. The reaction was allowed to proceed for 5 min. and change in O.D. was monitored every after 30 sec. One unit of enzyme activity is defined, as that amount of enzyme required to convert 1 μmol of NADPH to NADP per minute at 25° C. The purified recombinant enzyme has a specific activity of 12.5 U/mg. protein. Purification procedure leads to 20 fold purification from the soluble content of E. coli lysate. The total yield was 16 mg/lit (FIG. 7 describes the fold purification of Recombinant Leishmania donovani Trypanothione Reductase). […] For comparative kinetic studies, assay was performed at 50 μM NADPH and varying concentration of TS2 (20, 40, 60, 80 & 100) and at 50 μM TS2 and varying concentration of NADPH (20, 40, 60, 80, 100 & 150).
Compound,Km [2],Vmax [2],Substrate specificity (reduction catalyzed by purified protein) [2],other results
"Nc1nc(N)nc(Nc2ccc([As]=O)cc2)n1 (centres unmarked) [Melarsen Oxide, Melarsen oxide]",–,–,–,inhibition at 50 µM ([1]; read-out: Inhibition of TR): > 95%
"NC(=O)C1=CN([C@@H]2O[C@H](COP(=O)(O)OP(=O)(O)OC[C@H]3O[C@@H](n4cnc5c(N)ncnc54)[C@H](OP(=O)(O)O)[C@@H]3O)[C@@H](O)[C@H]2O)C=CC1 [NADPH, Nicotinidine adenine dinucleotide phosphate]",20 µM,125 μM/ml/min,–,–
"O.O.O.O=C([O-])[C@H]([O-])[C@@H]([O-])C(=O)[O-].O=C([O-])[C@H]([O-])[C@@H]([O-])C(=O)[O-].[K+].[K+].[Sb+3].[Sb+3] [SbIII, Potassium antimony tartrate]",–,–,–,Effect on TR activity (in words) ([1]; studied at 50 and 100 μM concentration): profound effect on TR activity in comparison to SAG
"N[C@@H](CCC(=O)N[C@H]1CSSC[C@H](NC(=O)CC[C@H](N)C(=O)O)C(=O)NCC(=O)NCCCNCCCCNC(=O)CNC1=O)C(=O)O [TS2, Oxidized Trypanothione]",50 µM,200 μM/ml/min,specifically catalyzed reduction,–
Oxidised Glutathione [oxidized glutathione],–,–,did not catalyze reduction,–
